From patent US20050245456A1, “Combination therapy to prevent and treat diarrhea induced by cancer treatment” (Pfizer Inc, priority 2004, published 2005)

Columns and labels:
[1] = Phase 1 trial: diarrhea induced by the isothiazole derivative; type: in vivo, human; conditions: almost all subjects at doses greater than 160 mg/day, within the first few days
Method: Susceptible subjects are encouraged to adhere to a daily schedule of prophylactic anti-diarrheal agents, such as Loperamide, Octreotide, Loperamide, Tamoxifen, a bulking agent, or an anti-estrogen. To treat the diarrhea in these patients, a therapeutically effective amount of 3-(4-Bromo-2,6-difluoro-benzyloxy)-5-[3-(4-pyrrolidin-1-yl-butyl)-ureido]-isothiazole-4-carboxylic acid amide HCl is administered to a patient in need of such therapy, prior to, simultaneously or sequentially with a therapeutically effective amount of Loperamide, Octreotide, Loperamide, Tamoxifen, a bulking agent, or an anti-estrogen.

[2] = patients who experienced this side-effect during a previous course of chemotherapy; Cascinu et al. 1994; cited from earlier work
[3] = cited from earlier work
[4] = system: MCF-7 breast cancer cells; conditions: Otto et al. 1996; cited from earlier work

Question: Which “diarrhea developed by subjects (CTC grade)” value [1] does the source give for NC(=O)c1c(OCc2c(F)cc(Br)cc2F)nsc1NC(=O)NCCCCN1CCCC1 [3-(4-Bromo-2,6-difluoro-benzyloxy)-5-[3-(4-pyrrolidin-1-yl-butyl)-ureido]-isothiazole-4-carboxylic acid amide] here?
Answer: Grade 1 or 2 diarrhea

Question: For C[C@@H](O)[C@@H]1NC(=O)[C@H](CCCCN)NC(=O)[C@@H](Cc2c[nH]c3ccccc23)NC(=O)[C@H](Cc2ccccc2)NC(=O)[C@@H](NC(=O)[C@H](N)Cc2ccccc2)CSSC[C@@H](C(=O)N[C@H](CO)[C@@H](C)O)NC1=O [Octreotide], which “prevention of diarrhea associated with cisplatin” value [2] is on record?
Answer: active in preventing diarrhea

Question: And the “treatment of diarrhea after chemotherapy with 5-fluorouracil” value ([3]; 11 patients with colorectal cancer, Kennedy et al. 1990)?
Answer: encouraging results

Question: What about the “efficacy versus Loperamide in therapy of 5-fluorouracil-induced diarrhea” value ([3]; randomized trial, Cascinu et al. 1993) of the same molecule?
Answer: more effective than Loperamide

Question: With CC/C(=C(\c1ccccc1)c1ccc(OCCN(C)C)cc1)c1ccccc1 [Tamoxifen] as the molecule, how does the “effect on cell cycle progression” value [4] read?
Answer: blocks cell cycle progression in G0/G1
